The results in this text go back to patent publication US20130224296A1, “Drug Formulations Using Water Soluble Antioxidants” (Bristol-Myers Squibb Company, priority 2010, published 2013).

A short description of data set [1]: Level of formaldehyde and formic acid in antioxidant containing Opadry films (GC). It is filed as physicochemical. The note with it: Opadry II white film, sealed vials 60° C. for 5 days; 0.2% w/v BHT or 2% w/v ascorbic acid or propyl gallate in suspension. The method, then: Five hundred μL of the coating suspension was dispensed in 5 mL scintillation vials. Open vials were kept overnight at 40° C. to form a film. The vials were rubber stoppered and sealed. The sealed vials were kept at 60° C. for 5 days and analyzed for formaldehyde and formic acid levels by a GC method. […] These concentrations are on the higher end of the recommended use concentrations for each antioxidant and were used to test their maximum efficacy.

The next data set in a line: physchem. The note with it: water.

In brackets after ≈: the same amount, converted by molar mass.

On to `O=C1O[C@H]([C@@H](O)CO)C(O)=C1O` [Ascorbic acid], for which, in data set [1], the Level of formaldehyde entry is reported as “Not detected” and the “Level of formic acid” value was 184 ppm.

As to `Cc1cc(C(C)(C)C)c(O)c(C(C)(C)C)c1` [Butylated hydroxy toluene (BHT), Butylated hydroxy toluene], in data set [1], the Level of formaldehyde is 95 ppm and the “Level of formic acid” value is 1159 ppm. In addition, in the data set “physchem”, the solubility (in general, the concentration that dissolves in the medium under given conditions) is 0.6 to 1.1 µg/mL (≈ 0.00272 to 0.00499 mM).

For `CCCOC(=O)c1cc(O)c(O)c(O)c1` [Propyl gallate], in data set [1], the Level of formaldehyde entry is “Not detected” and the “Level of formic acid” value was determined as 60 ppm. In the data set “physchem”, this compound had a solubility of 3330 µg/mL (≈ 15.7 mM).
